Test results published in patent US20040121316A1 (priority 2002, published 2004).
Values joined by “and” are separate entries in the source; they are usually repeats but may differ in a detail not shown here. Equal entries are not always repeated. Where two headings read alike, the source gives them in different places.

Columns and labels:
[1] = target: T1, recombinant HIV-1 protease (Human immunodeficiency virus type 1 group M subtype B, UniProt P04585); assay: biochemical
T1 construct: Enzyme: recombinant HIV-1 protease expressed in E.Coli; purchased Bachem California, Inc. H-9040; host or cells: E. coli

mutant HIV-1 I84V/L90M = assay: Resistance Evaluation, I84V/L90M fold change; format: cell-based; design: scale not given here
[2] = test system: wild-type HIV-1 strain IIIB; assay: microbe, parasite or virus in culture; format: cell-based; design: scale not given here
HIV-1 30N82I88D = assay: microbe, parasite or virus in culture; format: cell-based; settings: Human immunodeficiency virus 1, read-out: Cell-based assay (MT-4) EC50/nM 30N82I88D
HIV-1 84V90M = assay: microbe, parasite or virus in culture; format: cell-based
HIV-1 46I50V = assay: microbe, parasite or virus in culture; format: cell-based
HIV-1 48V54V82A = assay: microbe, parasite or virus in culture; format: cell-based
84V90M HIV protease = 84V90M HIV protease (Human immunodeficiency virus type 1 group M subtype B, UniProt P04585, I572V/L578M); assay: biochemical; design: species or system HIV-1
WT HIV-1 = assay: microbe, parasite or virus in culture; format: cell-based
[3] = Human immunodeficiency virus 1, read-out: Cell-based assay (MT-4) EC50/nM 84V90M
[4] = Human immunodeficiency virus 1, read-out: Cell-based assay (MT-4) EC50/nM 46I50V
[5] = Human immunodeficiency virus 1, read-out: Cell-based assay (MT-4) EC50/nM 48V54V82A
[6] = Human immunodeficiency virus 1, read-out: Cell-based assay (MT-4) EC50/nM WT
[7] = read-out: Cell-based assay (MT-4) EC50/nM WT
[8] = Human immunodeficiency virus 1, IIIB
[9] = EC50 of mutant I84V/L90M relative to wild type, class symbols

With `CC(C)CN(C[C@@H](O)[C@H](Cc1ccc(OCP(=O)(Oc2ccccc2)Oc2ccccc2)cc1)NC(=O)OC1CCOC1)S(=O)(=O)c1ccc(N)cc1` (stereo partly shown) [NH2, phenol] as the compound, how does the Ki ([1]; read-out: Ki) read?
The Ki was 100 to 1000 pM.

What about the I84V/L90M fold change (mutant HIV-1 I84V/L90M; mutant I84V/L90M vs wild type) of the same compound?
Its I84V/L90M fold change is “− (≦3)”.

What about the “EC50 (nM)” value [2] of the same compound?
The value was “+ +”.

With `CCOP(=O)(COCCCN1C(=O)N(Cc2ccc3[nH]nc(N)c3c2)C(Cc2ccccc2)C(O)C(O)C1Cc1ccccc1)OCC` (stereo not shown) [OCH2PO3Et2] as the compound, how does the EC50 (HIV-1 30N82I88D) read?
Its EC50 is 145 nM.

What about the EC50 (HIV-1 84V90M; [3]) of the same compound?
The EC50 was over 6000 nM.

What about the EC50 (HIV-1 46I50V; [4]) of the same compound?
The EC50 was 138 nM.

What about the EC50 (HIV-1 48V54V82A; [5]) of the same compound?
Its EC50 is 175 nM.

What about the IC50 (84V90M HIV protease) of the same compound?
The IC50 was 157 nM.

What about the EC50 (WT HIV-1; [6]) of the same compound?
The EC50 was 356 nM.

How did the EC50 (HIV-1 84V90M; MT-4, 84V90M, read-out: Cell-based assay (MT-4) EC50/nM 84V90M) turn out when `Nc1n[nH]c2ccc(CN3C(=O)N(CCCOCP(=O)(O)O)C(Cc4ccccc4)C(O)C(O)C3Cc3ccccc3)cc12` (stereo not shown) [OCH2PO3H2] was run?
The EC50 was over 6000 nM.

And the EC50 (WT HIV-1; [7])?
The EC50 was 1070 nM.

How did the EC50 (HIV-1 30N82I88D) turn out when `CCOP(=O)(COc1ccc(CC2C(O)C(O)C(Cc3ccc(O)cc3)N(Cc3ccc(O)cc3)C(=O)N2Cc2ccc(O)cc2)cc1)OCC` (stereo not shown) [OH, Ph-pOH, OCH2PO3Et2] was run?
The EC50 was 211 nM.

What about the EC50 (HIV-1 84V90M; [3]) of the same compound?
The EC50 was 1910 nM.

And the EC50 (HIV-1 46I50V; [4])?
The EC50 was 1110 nM.

What about the EC50 (HIV-1 48V54V82A; [5]) of the same compound?
Its EC50 is 986 nM.

What about the IC50 (84V90M HIV protease) of the same compound?
Its IC50 is 18 nM.

What about the EC50 (WT HIV-1; [6]) of the same compound?
Its EC50 is 285 nM.

With `CCOP(=O)(COc1ccc(CC(NC(=O)OC2CCOC2)C(O)CN(CC(C)C)S(=O)(=O)c2ccc(OC)cc2)cc1)OCC` (stereo not shown) [OMe, OEt] as the compound, how does the “Ki (pM)” value [1] read?
Its value is “+ + and + + +”.

What about the I84V/L90M fold change (mutant HIV-1 I84V/L90M; mutant I84V/L90M vs wild type) of the same compound?
The I84V/L90M fold change was “+ + and + + +”.

What about the “EC50 (nM)” value [2] of the same compound?
Its value is “+ + +”.

For `COc1ccc(S(=O)(=O)N(CC(C)C)C[C@@H](O)[C@H](Cc2ccc(OCP(=O)(Oc3ccccc3)Oc3ccccc3)cc2)NC(=O)OC2CCOC2)cc1` (stereo partly shown) [OMe, phenol], which “Ki (pM)” value [1] is on record?
The value was “+ + +”.

And the I84V/L90M fold change (mutant HIV-1 I84V/L90M; mutant I84V/L90M vs wild type)?
The I84V/L90M fold change was “+ (>3 to ≦10)”.

And the “EC50 (nM)” value [2]?
The value was “+ + +”.

With `CCOP(=O)(COc1ccc(CC(NC(=O)OC2COC3OCCC23)C(O)CN(CC(C)C)S(=O)(=O)c2ccc(OC)cc2)cc1)Oc1ccccc1` (stereo not shown) [drawing 608 R1=OEt R2=OPh] as the compound, how does the Ki ([1]; Ki, class symbols, Table 10) read?
The Ki was under 10 pM.

What about the EC50 [2, 8] of the same compound?
Its EC50 is under 50 nM.

How did the Ki ([1]; Ki, class symbols, Table 10) turn out when `COc1ccc(S(=O)(=O)N(CC(C)C)CC(O)C(Cc2ccc(OCP(=O)(O)Oc3ccccc3)cc2)NC(=O)OC2COC3OCCC23)cc1` (stereo not shown) [drawing 608 R1=OH R2=OPh] was run?
Its Ki is under 10 pM.

And the EC50 [2, 8]?
Its EC50 is over 5000 nM.

With `COc1ccc(S(=O)(=O)N(CC(C)C)CC(O)C(Cc2ccc(OCP(=O)(OC)Oc3ccccc3)cc2)NC(=O)OC2COC3OCCC23)cc1` (stereo not shown) [drawing 608 R1=OMe R2=OPh] as the compound, how does the Ki ([1]; Ki, class symbols, Table 10) read?
The Ki was 10 to 100 pM.

What about the EC50 [2, 8] of the same compound?
The EC50 was under 50 nM.

What does the source list for `COc1ccc(S(=O)(=O)N(CC(C)C)CC(O)C(Cc2ccc(OCP(=O)(NC(C)C(=O)OC(C)C)Oc3ccccc3)cc2)NC(=O)OC2COC3OCCC23)cc1` (stereo not shown) [drawing 614 R1=OPh R2=Ala-iPr]?
Ki ([1]; Ki, class symbols, Table 10): < 10 pM and 10 to 100 pM; EC50 [2, 8]: < 50 nM

For `CCCCOC(=O)CNP(=O)(COc1ccc(CC(NC(=O)OC2COC3OCCC23)C(O)CN(CC(C)C)S(=O)(=O)c2ccc(OC)cc2)cc1)Oc1ccccc1` (stereo not shown) [drawing 614 R1=OPh R2=Gly-Bu], which Ki ([1]; Ki, class symbols, Table 10) is on record?
The Ki was 10 to 100 pM.

And the I84V/L90M fold change (mutant HIV-1 I84V/L90M; [9])?
Its I84V/L90M fold change is “− (≦3)”.

And the EC50 [2, 8]?
The EC50 was 50 to 500 nM.

`CCOC(=O)COP(=O)(COc1ccc(CC(NC(=O)OC2COC3OCCC23)C(O)CN(CC(C)C)S(=O)(=O)c2ccc(OC)cc2)cc1)Oc1ccccc1` (stereo not shown) [drawing 615 R1=OPh R2=Glc-Et] was tested. Which Ki ([1]; Ki, class symbols, Table 10) did it give?
Its Ki is under 10 pM.

What about the I84V/L90M fold change (mutant HIV-1 I84V/L90M; [9]) of the same compound?
The I84V/L90M fold change was “− (≦3)”.

What about the EC50 [2, 8] of the same compound?
Its EC50 is 50 to 500 nM.

For `CCOC(=O)C(C)OP(=O)(COc1ccc(CC(NC(=O)OC2COC3OCCC23)C(O)CN(CC(C)C)S(=O)(=O)c2ccc(OC)cc2)cc1)Oc1cccc(CN)c1` [drawing 617 R1=OPb-m-CH2NH2 R2=(S)Lac-Et], which Ki ([1]; Ki, class symbols, Table 10) is on record?
Its Ki is 10 to 100 pM.

And the EC50 [2, 8]?
The EC50 was 50 to 500 nM.

With `COc1ccc(S(=O)(=O)N(CC(C)C)CC(O)C(CC2=CCN(CCP(=O)(OCc3ccccc3)OCc3ccccc3)CC2)NC(=O)OC2COC3OCCC23)cc1` (stereo not shown) [drawing 673] as the compound, how does the Ki ([1]; read-out: Ki) read?
The Ki was over 1000 pM.

And the I84V/L90M fold change (mutant HIV-1 I84V/L90M; mutant I84V/L90M vs wild type)?
Its I84V/L90M fold change is “− (≦3)”.

And the “EC50 (nM)” value [2]?
Its value is “+ +”.

With `CC(C)CN(CC(O)C(Cc1ccc(OCP(=O)(NC(C)C(=O)OC(C)C)Oc2ccccc2)cc1)NC(=O)OC1CCOC1)S(=O)(=O)c1ccc(N)cc1` (stereo not shown) [drawing 697 R1=OPh R2=Ala-iPr] as the compound, how does the Ki ([1]; Ki, class symbols, Table 10) read?
The Ki was 100 to 1000 pM.

What about the Ki ([1]; class symbols, Table 10) of the same compound?
Its Ki is “+ +”.

What about the I84V/L90M fold change (mutant HIV-1 I84V/L90M; [9]) of the same compound?
The I84V/L90M fold change was “+ (>3 to ≦10)”.

And the EC50 ([2]; class symbols, Table 10)?
Its EC50 is “+ +”.

How did the Ki ([1]; Ki (pM)) turn out when `CCCCOC(=O)C(C)OP(=O)(COc1ccc(CC(NC(=O)OC2COC3OCCC23)C(O)CN(CC(C)C)S(=O)(=O)c2cccc(N)c2)cc1)Oc1ccccc1` (stereo not shown) [drawing 719] was run?
Its Ki is 100 to 1000 pM.

What about the I84V/L90M fold change (mutant HIV-1 I84V/L90M; mutant I84V/L90M vs wild type) of the same compound?
The I84V/L90M fold change was “− (≦3)”.

Which IC50 (84V90M HIV protease; read-out: 84V90M IC50/nM, Enzymatic assay, 84V90M) does the source give for `CCOP(=O)(CCCNC(=O)c1cccc(CN2C(=O)N(Cc3ccc4[nH]nc(N)c4c3)C(Cc3ccccc3)C(O)C(O)C2Cc2ccccc2)c1)OCC` (stereo not shown) [drawing 820] here?
The IC50 was 10 nM.

For `Nc1n[nH]c2ccc(CN3C(=O)N(Cc4cccc(OCc5ccccc5)c4)C(Cc4ccccc4)C(O)C(O)C3Cc3ccccc3)cc12` (stereo not shown) [m-OBn], which EC50 (HIV-1 46I50V; MT-4, 46I50V, read-out: Cell-based assay (MT-4) EC50/nM 46I50V) is on record?
The EC50 was 601 nM.

What about the EC50 (HIV-1 48V54V82A; MT-4, 48V54V82A, read-out: Cell-based assay (MT-4) EC50/nM 48V54V82A) of the same compound?
The EC50 was 709 nM.

And the EC50 (WT HIV-1; [7])?
Its EC50 is 218 nM.
